According to BindingDB's records for doi:10.1016/j.bmcl.2009.01.008 (Pfizer, 2009):
Several values for one entry are separate records, joined by “and”; a condition that tells them apart may be missing. Identical values can stand only once.

Assay: Antagonist activity at human recombinant CCR5 expressed in human HeLa-P4 cells assessed as inhibition of human HeLa-P4 cells binding to HIV1 gp160 expressing CHO cells by cell-cell fusion assay

SMILES | IC50
Cc1nnc(C(C)C)n1C1CCN(C(C)C[C@H](NC(=O)C2CC[S+]([O-])CC2)c2ccccc2)CC1 (mixture of isomers) [(+/-)-1-Oxo-hexahydro-1lambda*4*-thiopyran-4-carboxylic acid{(S)-3-[4-(3-isopropyl-5-methyl-[1,2,4]triazol-4-yl)-piperidin-1-yl]-1-phenyl-butyl}-amide] | 4.87 nM
Cc1nnc(C(C)C)n1C1CCN(C(C)C[C@H](NC(=O)N2CCN(C)CC2)c2ccccc2)CC1 (mixture of isomers) [(+/-)-N-((1S)-3-(4-(3-isopropyl-5-methyl-4H-1,2,4-triazol-4-yl)piperidin-1-yl)-1-phenylbutyl)-4-methylpiperazine-1-carboxamide] | 187 nM
Cc1nc(C(C)C)n(C2CC3CCC(C2)N3CC[C@H](NC(=O)C2CCC(F)(F)CC2)c2ccccc2)n1 (stereo partly drawn) [4,4-difluoro-N-((1S)-3-(3-(5-isopropyl-3-methyl-1H-1,2,4-triazol-1-yl)-8-azabicyclo[3.2.1]octan-8-yl)-1-phenylpropyl)cyclohexanecarboxamide] | 1.4 nM
Cc1nnc(C(C)C)n1C1CCN(C(C)C[C@H](NC(=O)C2CC2)c2ccccc2)CC1 (mixture of isomers) [(+/-)-N-((1S)-3-(4-(3-isopropyl-5-methyl-4H-1,2,4-triazol-4-yl)piperidin-1-yl)-1-phenylbutyl)cyclopropanecarboxamide] | 3.93 nM
Cc1nnc(C(C)C)n1C1CCN(C(C)C[C@H](NC(=O)COCC(F)(F)F)c2ccccc2)CC1 (mixture of isomers) [(+/-)-N-((1S)-3-(4-(3-isopropyl-5-methyl-4H-1,2,4-triazol-4-yl)piperidin-1-yl)-1-phenylbutyl)-2-(2,2,2-trifluoroethoxy)acetamide] | 52.8 nM
COC(=O)N[C@@H](CC(C)N1CCC(n2c(C)nnc2C(C)C)CC1)c1ccccc1 (mixture of isomers) [(+/-)-methyl(1S)-3-(4-(3-isopropyl-5-methyl-4H-1,2,4-triazol-4-yl)piperidin-1-yl)-1-phenylbutylcarbamate] | 315 nM
Cc1nnc(C(C)C)n1C1CCN(C(C)C[C@H](NC(=O)C(C)C)c2ccccc2)CC1 (mixture of isomers) [(+/-)-N-((1S)-3-(4-(3-isopropyl-5-methyl-4H-1,2,4-triazol-4-yl)piperidin-1-yl)-1-phenylbutyl)isobutyramide] | 3.11 nM
Cc1nnc(C(C)C)n1C1CCN(C(C)C[C@H](NC(=O)CC2CC2)c2ccccc2)CC1 (mixture of isomers) [(+/-)-2-cyclopropyl-N-((1S)-3-(4-(3-isopropyl-5-methyl-4H-1,2,4-triazol-4-yl)piperidin-1-yl)-1-phenylbutyl)acetamide] | 3.16 nM
Cc1nnc(C(C)C)n1C1CCN(C(C)C[C@H](NC(=O)N2CCOCC2)c2ccccc2)CC1 (mixture of isomers) [(+/-)-N-((1S)-3-(4-(3-isopropyl-5-methyl-4H-1,2,4-triazol-4-yl)piperidin-1-yl)-1-phenylbutyl)morpholine-4-carboxamide] | 176 nM

Other lines, results leading:

IC50 | SMILES
0.513 nM | Cc1nnc(C(C)C)n1C1CCN(C(C)C[C@H](NC(=O)C2CCCCC2)c2ccccc2)CC1 (mixture of isomers) [(+/-)-N-((1S)-3-(4-(3-isopropyl-5-methyl-4H-1,2,4-triazol-4-yl)piperidin-1-yl)-1-phenylbutyl)cyclohexanecarboxamide]
85.3 nM | Cc1nnc(C(C)C)n1C1CCN(C(C)C[C@H](NC(=O)CC(F)(F)F)c2ccccc2)CC1 (mixture of isomers) [(+/-)-3,3,3-trifluoro-N-((1S)-3-(4-(3-isopropyl-5-methyl-4H-1,2,4-triazol-4-yl)piperidin-1-yl)-1-phenylbutyl)propanamide]
49.9 nM | Cc1nnc(C(C)C)n1C1CCN([C@@H](C)C[C@H](NC(=O)C2CCC(F)(F)CC2)c2ccccc2)CC1 [4,4-difluoro-N-((1S,3S)-3-(4-(3-isopropyl-5-methyl-4H-1,2,4-triazol-4-yl)piperidin-1-yl)-1-phenylbutyl)cyclohexanecarboxamide]
164 nM | Cc1nnc(C(C)C)n1C1CCN(C(C)C[C@H](NC(=O)C2CCOCC2)c2ccccc2)CC1 (mixture of isomers) [(+/-)-N-((1S)-3-(4-(3-isopropyl-5-methyl-4H-1,2,4-triazol-4-yl)piperidin-1-yl)-1-phenylbutyl)tetrahydro-2H-pyran-4-carboxamide]
89.2 nM | CC(=O)N[C@@H](CC(C)N1CCC(n2c(C)nnc2C(C)C)CC1)c1ccccc1 (mixture of isomers) [(+/-)-N-((1S)-3-(4-(3-isopropyl-5-methyl-4H-1,2,4-triazol-4-yl)piperidin-1-yl)-1-phenylbutyl)acetamide]
0.48 nM | Cc1nnc(C(C)C)n1C1CCN([C@H](C)C[C@H](NC(=O)C2CC(F)(F)C2)c2ccccc2)CC1 [3,3-difluoro-N-((1S,3R)-3-(4-(3-isopropyl-5-methyl-4H-1,2,4-triazol-4-yl)piperidin-1-yl)-1-phenylbutyl)cyclobutanecarboxamide]
0.137 nM | Cc1nnc(C(C)C)n1C1CCN(C(C)C[C@H](NC(=O)C2CCCC2)c2ccccc2)CC1 (mixture of isomers) [(+/-)-N-((1S)-3-(4-(3-isopropyl-5-methyl-4H-1,2,4-triazol-4-yl)piperidin-1-yl)-1-phenylbutyl)cyclopentanecarboxamide]
6.12 nM | Cc1nnc(C(C)C)n1C1CCN(C(C)C[C@H](NC(=O)C2CCS(=O)(=O)CC2)c2ccccc2)CC1 (mixture of isomers) [(+/-)-1,1-Dioxo-hexahydro-1lambda*6*-thiopyran-4-carboxylic acid{(S)-3-[4-(3-isopropyl-5-methyl-[1,2,4]triazol-4-yl)-piperidin-1-yl]-1-phenyl-butyl}-amide]
28.7 nM | CC(=O)N1CCC(C(=O)N[C@@H](CC(C)N2CCC(n3c(C)nnc3C(C)C)CC2)c2ccccc2)CC1 (mixture of isomers) [(+/-)-1-acetyl-N-((1S)-3-(4-(3-isopropyl-5-methyl-4H-1,2,4-triazol-4-yl)piperidin-1-yl)-1-phenylbutyl)piperidine-4-carboxamide]
1.3 nM and 0.38 nM | Cc1nnc(C(C)C)n1C1CCN(C(C)C[C@H](NC(=O)C2CC(F)(F)C2)c2ccccc2)CC1 (mixture of isomers)
